Values quoted from earlier work as cited in patent US10632043B2, “Premix formulation for parenteral use and packaging thereof” (Aurobindo Pharma Ltd, priority 2015, dated 2020).
Read-outs that look alike come from different tables or passages of the source.

Details: for time stable: diluted to 4 mg/mL in 0.9% sodium chloride injection, polypropylene (PP) syringes

SMILES: Cc1cccc([C@H](C)c2cnc[nH]2)c1C [dexmedetomidine]
- loss of drug potency (PP syringe, over 48 hours): about 5%
- time stable (5° C.): 14 days
- time stable (20-25° C.): 2 days
- loss of drug concentration (syringes at room temperature, over 48 hours): < 10%
- loss of drug concentration (syringes, refrigerated, over 14 days): < 5%
